The results in this text go back to patent US20120083522A1, “MODULATION OF INFLAMMATORY RESPONSES BY FACTOR XI” (Isis Pharmaceuitcals, inc., priority 2009, published 2012).

The series deals with human Factor XI mRNA. Put plainly: Antisense inhibition in HepG2 cells by microwalk gapmers, 8,000 nM, electroporation (Example 14). In kind it is cell-based. Particulars: HepG2 cells, 8,000 nM. On the procedure:
These microwalk gapmers were tested in vitro. Cultured HepG2 cells at a density of 20,000 cells per well were transfected using electroporation with 8,000 nM antisense oligonucleotide. After a treatment period of approximately 24 hours, RNA was isolated from the cells and Factor XI mRNA levels were measured by quantitative real-time PCR. Factor XI mRNA levels were adjusted according to total RNA content, as measured by RIBOGREEN. Results are presented as percent inhibition of Factor XI, relative to untreated control cells.
The chimeric antisense oligonucleotides in Table 51 were designed as 5-10-5 MOE, 5-8-5 and 6-8-6 MOE gapmers. The first two listed gapmers in Table 51 are the original gapmers (ISIS 416850 and ISIS 416858) from which ISIS 445493-445543 were designed via microwalk, and are designated by an asterisk. The 5-10-5 gapmers are 20 nucleotides in length, wherein the central gap segment is comprised of ten 2′-deoxynucleotides and is flanked on both sides (in the 5′ and 3′ directions) by wings comprising five nucleotides each. The 5-8-5 gapmers are 18 nucleotides in length, wherein the central gap segment is comprised of eight 2′-deoxynucleotides and is flanked on both sides (in the 5′ and 3′ directions) by wings comprising five nucleotides each. The 6-8-6 gapmers are 20 nucleotides in length, wherein the central gap segment is comprised of eight 2′-deoxynucleotides and is flanked on both sides (in the 5′ and 3′ directions) by wings comprising six nucleotides each. For each of the motifs (5-10-5, 5-8-5 and 6-8-6), each nucleotide in the 5′ wing segment and each nucleotide in the 3′ wing segment has a 2′-MOE modification. The internucleoside linkages throughout each gapmer are phosphorothioate (P═S) linkages. All cytidine residues throughout each gapmer are 5-methylcytidines. “Human Target start site” indicates the 5′-most nucleotide to which the gapmer is targeted in the human sequence. “Human Target stop site” indicates the 3′-most nucleotide to which the gapmer is targeted in the human sequence. Each gapmer listed in Table 51 is targeted to SEQ ID NO: 1 (GENBANK Accession No. NM_000128.3). Each gapmer is Table 51 is also fully cross-reactive with the rhesus monkey Factor XI gene sequence, designated herein as SEQ ID NO: 274 (exons 1-15 GENBANK Accession No. NW—001118167.1). ‘Rhesus monkey start site’ indicates the 5′-most nucleotide to which the gapmer is targeted in the rhesus monkey sequence. ‘Rhesus monkey stop site’ indicates the 3′-most nucleotide to which the gapmer is targeted to the rhesus monkey sequence.

In the oligonucleotide strings, read from the 5' end, every base follows the letter of its sugar. An asterisk marks phosphorothioate; unmarked linkages are phosphodiester. Other units and linkages are bracketed, terminal groups are in braces. A string of capitals states the bases alone. e = 2'-O-(2-methoxyethyl) (MOE); [5mC] = 5-methylcytosine; d = 2'-deoxy (DNA)

Consider “445493 (antisense eA*e[5mC]*eA*eG*eT*eT*dT*d[5mC]*dT*dG*dG*d[5mC]*dA*dG*eG*e[5mC]*e[5mC]*eT*e[5mC]*eG) [compound 445493]”, for which the “Percent inhibition of human Factor XI mRNA levels” value (from here on “Percent inhibition”) amounted to 69%.
Consider “445494 (antisense CACAGTTTCTGGCAGGCCTC; 6-8-6 gapmer chemistry, chemistry not fully specified) [compound 445494]”, for which the “Percent inhibition” value was 85%.
The result for “445495 (antisense GCACAGTTTCTGGCAGGCCT; 6-8-6 gapmer chemistry, chemistry not fully specified) [compound 445495]” reads 89%; that for “445496 (antisense TGCACAGTTTCTGGCAGGCC; 6-8-6 gapmer chemistry, chemistry not fully specified) [compound 445496]”, 87%; that for “445497 (antisense GTGCACAGTTTCTGGCAGGC; 6-8-6 gapmer chemistry, chemistry not fully specified) [compound 445497]”, 81%.
Regarding “445499 (antisense TGGTGCACAGTTTCTGGCAG; 6-8-6 gapmer chemistry, chemistry not fully specified) [compound 445499]”, the “Percent inhibition” value stood at 75%.
Consider “445500 (antisense TTGGTGCACAGTTTCTGGCA; 6-8-6 gapmer chemistry, chemistry not fully specified) [compound 445500]”, for which the “Percent inhibition” value is reported as 81%.
As for “445501 (antisense ATTGGTGCACAGTTTCTGGC; 6-8-6 gapmer chemistry, chemistry not fully specified) [compound 445501]”, the figure is 83%; as for “445502 (antisense e[5mC]*eA*eT*eT*eG*eG*dT*dG*d[5mC]*dA*d[5mC]*dA*dG*dT*eT*eT*e[5mC]*eT*eG*eG) [compound 445502]”, 83%.
As for “445506 (antisense eA*e[5mC]*eG*eG*e[5mC]*eA*dT*dT*dG*dG*dT*dG*d[5mC]*dA*e[5mC]*eA*eG*eT*eT*eT) [compound 445506]”, the figure is 86%; as for “445507 (antisense eG*eA*e[5mC]*eG*eG*e[5mC]*dA*dT*dT*dG*dG*dT*dG*d[5mC]*eA*e[5mC]*eA*eG*eT*eT) [compound 445507]”, 85%.
As to “445508 (antisense eG*eG*eA*e[5mC]*eG*eG*d[5mC]*dA*dT*dT*dG*dG*dT*dG*e[5mC]*eA*e[5mC]*eA*eG*eT) [compound 445508]”, the “Percent inhibition” value is listed as 81%.
As for “445509 (antisense e[5mC]*eG*eG*eA*e[5mC]*eG*dG*d[5mC]*dA*dT*dT*dG*dG*dT*eG*e[5mC]*eA*e[5mC]*eA*eG) [compound 445509]”, the “Percent inhibition” value came out at 84%.
The result for “445510 (antisense eG*e[5mC]*eG*eG*eA*e[5mC]*dG*dG*d[5mC]*dA*dT*dT*dG*dG*eT*eG*e[5mC]*eA*e[5mC]*eA) [compound 445510]” reads 88%; that for “445511 (antisense eA*eG*e[5mC]*eG*eG*eA*d[5mC]*dG*dG*d[5mC]*dA*dT*dT*dG*eG*eT*eG*e[5mC]*eA*e[5mC]) [compound 445511]”, 77%.
“445512 (antisense e[5mC]*eA*eG*e[5mC]*eG*eG*dA*d[5mC]*dG*dG*d[5mC]*dA*dT*dT*eG*eG*eT*eG*e[5mC]*eA) [compound 445512]”: the “Percent inhibition” value was determined as 79%.
On to “445513 (antisense eG*e[5mC]*eA*eG*e[5mC]*eG*dG*dA*d[5mC]*dG*dG*d[5mC]*dA*dT*eT*eG*eG*eT*eG*e[5mC]) [compound 445513]”, for which the “Percent inhibition” value was determined as 85%.
In the case of “445514 (antisense eG*eG*e[5mC]*eA*eG*e[5mC]*dG*dG*dA*d[5mC]*dG*dG*d[5mC]*dA*eT*eT*eG*eG*eT*eG) [compound 445514]”, the “Percent inhibition” value was 81%.
For “445515 (antisense eT*eG*eG*e[5mC]*eA*eG*d[5mC]*dG*dG*dA*d[5mC]*dG*dG*d[5mC]*eA*eT*eT*eG*eG*eT) [compound 445515]”, the “Percent inhibition” value stood at 75%.
For “445516 (antisense e[5mC]*eT*eG*eG*e[5mC]*eA*dG*d[5mC]*dG*dG*dA*d[5mC]*dG*dG*e[5mC]*eA*eT*eT*eG*eG) [compound 445516]”, the “Percent inhibition” value is 79%.
The result for “445517 (antisense eA*e[5mC]*eT*eG*eG*e[5mC]*dA*dG*d[5mC]*dG*dG*dA*d[5mC]*dG*eG*e[5mC]*eA*eT*eT*eG) [compound 445517]” reads 74%.
As for “445518 (antisense eA*eG*eT*eT*eT*d[5mC]*dT*dG*dG*d[5mC]*dA*dG*dG*e[5mC]*e[5mC]*eT*e[5mC]*eG) [compound 445518]”, the figure is 75%; as for “445519 (antisense e[5mC]*eA*eG*eT*eT*dT*d[5mC]*dT*dG*dG*d[5mC]*dA*dG*eG*e[5mC]*e[5mC]*eT*e[5mC]) [compound 445519]”, 81%.
As for “445520 (antisense eA*e[5mC]*eA*eG*eT*dT*dT*d[5mC]*dT*dG*dG*d[5mC]*dA*eG*eG*e[5mC]*e[5mC]*eT) [compound 445520]”, the figure is 82%; as for “445521 (antisense e[5mC]*eA*e[5mC]*eA*eG*dT*dT*dT*d[5mC]*dT*dG*dG*d[5mC]*eA*eG*eG*e[5mC]*e[5mC]) [compound 445521]”, 87%.
Consider “445523 (antisense eT*eG*e[5mC]*eA*e[5mC]*dA*dG*dT*dT*dT*d[5mC]*dT*dG*eG*e[5mC]*eA*eG*eG) [compound 445523]”, for which the “Percent inhibition” value worked out at 73%.
Turning to “445524 (antisense eG*eT*eG*e[5mC]*eA*d[5mC]*dA*dG*dT*dT*dT*d[5mC]*dT*eG*eG*e[5mC]*eA*eG) [compound 445524]”, the “Percent inhibition” value is recorded as 75%.
For the substance “445525 (antisense eG*eG*eT*eG*e[5mC]*dA*d[5mC]*dA*dG*dT*dT*dT*d[5mC]*eT*eG*eG*e[5mC]*eA) [compound 445525]”, the “Percent inhibition” value is on record as 85%.
Take “445526 (antisense eT*eG*eG*eT*eG*d[5mC]*dA*d[5mC]*dA*dG*dT*dT*dT*e[5mC]*eT*eG*eG*e[5mC]) [compound 445526]”: the “Percent inhibition” value came out at 81%.
For “445527 (antisense eT*eT*eG*eG*eT*dG*d[5mC]*dA*d[5mC]*dA*dG*dT*dT*eT*e[5mC]*eT*eG*eG) [compound 445527]”, the “Percent inhibition” value is listed as 70%.
Take “445528 (antisense eA*eT*eT*eG*eG*dT*dG*d[5mC]*dA*d[5mC]*dA*dG*dT*eT*eT*e[5mC]*eT*eG) [compound 445528]”: the “Percent inhibition” value was 73%.
For the substance “445529 (antisense e[5mC]*eA*eT*eT*eG*dG*dT*dG*d[5mC]*dA*d[5mC]*dA*dG*eT*eT*eT*e[5mC]*eT) [compound 445529]”, the “Percent inhibition” value is recorded as 85%.
